Measured values as given in patent US11419902B2, “Compositions comprising bacterial strains” (4D Pharma Research Limited, priority 2018, dated 2022).

Assays:
[1] = system: HT29 colorectal cancer cell line; assay: Clonogenic survival of HT29 cell line; format: cell-based; settings: HT29, added to MRx0029
Protocol: (§1) Cells were trypsinized and 200 cells/well were seeded in 12-well plates. After 48 h cells were treated with the appropriate drugs in absence (YCFA+) or presence of 10% bacterial supernatant and were re-fed every three days. On day 21 after seeding, cells were fixed in ice-cold methanol and stained with Crystal Violet blue. […] were counted and survival fraction was calculated as number of colonies divided by the number of plated cells (plating efficiency) of treated divided by the plating efficiency of control.
The effects of the following treatments were assessed on the HT29 colorectal cancer cell line (V600E oncogenic mutation in BRAF): (1) MRx0029; (2) Vemurafenib (VEMU) in YFCA+ medium; (3) VEMU and MRx0029; (4) Azacytidine-C (Aza-c) in YCFA+ medium; (5) Aza-c and MRx0029; (6) VEMU, Aza-c and MRx0029.

[2] = system: SKMEL31 melanoma cell line; assay: Soft agar growth of SKMEL31 cell line; format: cell-based; settings: SKMEL31, added to MRx0029
Protocol: (§2) A mixture of 25 μL prewarmed (37° C.) 2× appropriate growth medium (EMEM for melanoma cell lines; DMEM high glucose for HT29) containing 20% FBS, 4 mM L-Glu, 2×NEAA, 0.6% sodium bicarbonate, 200 U/mL penicillin/streptomycin (Invitrogen), and 25 μL prewarmed (47° C.) 1.2% Noble Agar (A5431; Sigma Aldrich) were plated onto each well of a 96-well microplate to serve as a prelayer for the assay. Ten microliters of cell suspensions containing 0-2×10^3 cells were mixed with 25 μL 2× growth media and 35 μL 0.8% Noble Agar in a 96-well round-bottom polypropylene microplate and transferred to the 96-well microplate containing the solidified prelayers. […] They left to grow in the humidified 37° C. incubator with 5% CO2 for 1-2 weeks before soft agar growth was scored using the CytoSelect 96 well cell transformation assay (CBA-130; Cell Biolabs) according to the manufacturer's protocol. Cell growth was measured using a Tecan Infinite F200 Pro Series Multi-Well Plate Reader (Tecan Biosystems), with excitation at 485 nm and emission at 530 nm. […]
(§3) The effects of the following treatments were assessed on the SKMEL31 melanoma cell line (heterozygous for BRAF V600E): (1) MRx0029; (2) Vemurafenib (VEMU) in YFCA+ medium; (3) VEMU and MRx0029; (4) Azacytidine-C (Aza-c) in YFCA+ medium; (5) Aza-c and MRx0029; (6) VEMU, Aza-c and MRx0029.

[3] = system: 451Lu melanoma cell line; assay: Soft agar growth of 451Lu cell line; format: cell-based; settings: added to MRx0029
Protocol: as §2
The effects of the following treatments were assessed on the 451Lu melanoma cell line (V600E oncogenic mutation in BRAF): (1) MRx0029; (2) Vemurafenib (VEMU) in YFCA+ medium; (3) VEMU and MRx0029; (4) Azacytidine-C (Aza-c) in YFCA+ medium; (5) Aza-c and MRx0029; (6) VEMU, Aza-c and MRx0029.

[4] = system: SKMEL31 melanoma cell line; assay: Clonogenic survival of SKMEL31 cell line; format: cell-based; settings: SKMEL31, added to MRx0029
Protocol: as §1, §3

[5] = system: IL-8; assay: IL-8 secretion by differentiated HT29-mtx cells; format: cell-based; settings: 24 h, vs untreated and YCFA+-treated cells
Excerpt: The ability of MRx0029 to cause any intestinal barrier dysfunction was investigated. HT29-mtx epithelial, mucin-producing cell monolayers were used as an in vitro model to evaluate gut barrier disruption and immune stimulation following treatment with MRx0029.

[6] = system: IL-8; assay: IL-8 secretion in U373 cells treated with SCFAs or supernatant fractions (ELISA); format: cell-based, Human; settings: U373 cells pre-treated 1 h with 1 μg/ml LPS, increasing concentrations
Protocol: Human glioblastoma astrocytoma cell line (U373), were maintained in 25 ml MEME 4.5 g/L D-glucose supplemented with 10% heat-inactivated FBS, 4 mM L-Glutamine, 100 U/ml penicillin, 100 μg/ml streptomycin and 5 μg/ml plasmocin, 1% Non-Essential Amino Acids, 1% Sodium Pyruvate (referred to as full growth media).
U373 cells were prepared as described above. Cells were pre-treated for 1 h with 1 μg/ml LPS indicated above and incubated at 37° C. and 5% CO2. After 1 h pre-incubation, cells were removed from CO2 incubator and treated with increasing concentration of fresh prepared Sodium Butyrate (SB), Sodium Valerate (SV) and Hexanoic Acid (HA).
U373 cells were prepared as described above. Cells were pre-treated for 1 h with 1 μg/ml LPS as indicated above. Afterwards, cells were removed from CO2 incubator and treated with 100 μl of the different fractions. Fractions from media were used as controls. Cell-free supernatants were collected 24 h after treatment and analysed by ELISA for IL-8 secretion (as outlined above).

[7] = system: HDAC; assay: HDAC inhibition on whole HT-29 cells; format: cell-based
Protocol: (§4) Pure cultures of bacteria were grown anaerobically in YCFA+ broth until they reached their stationary growth phase. Cultures were centrifuged at 5,000×g for 5 minutes and the cell-free supernatant (CFS) was filtered using a […] (Millipore, UK). 1 mL aliquots of the CFS were stored at −80° C. until use. Sodium butyrate, hexanoic and valeric acid were obtained from Sigma Aldrich (UK) and suspensions were prepared in YCFA+ broth.
(§5) To investigate which metabolites were responsible for the strain-induced HDAC inhibition, different concentrations of hexanoic acid, valeric acid and sodium butyrate were measured for their HDAC inhibition on whole HT-29 cells and on HT-29 cell lysate.

[8] = system: HDAC; assay: HDAC inhibition on HT-29 cell lysate; format: biochemical
Protocol: as §4, §5

SMILES | LPS-induced secretion of IL-8 [6] | HDAC inhibition on whole HT-29 cells [7] | HDAC inhibition on HT-29 cell lysate [8] | also measured
Nc1ncn([C@@H]2O[C@H](CO)[C@@H](O)[C@H]2O)c(=O)n1 [Aza-c, Azacytidine-C] |  |  |  | effect on inhibition of clonogenic survival by MRx0029 [1]: improved the effects of MRx0029 in inhibiting clonogenic survival; effect on soft agar growth inhibition by MRx0029 [2]: improved; effect on soft agar growth inhibition by MRx0029 [3]: enhanced soft agar growth inhibition by MRx0029; effect on clonogenic survival inhibition by MRx0029 [4]: improved
CCCCCCCCCCCCCC(=O)O[C@@H]1[C@@H](C)[C@@]2(O)[C@@H](C=C(CO)C[C@]3(O)C(=O)C(C)=C[C@@H]23)[C@@H]2C(C)(C)[C@]12OC(C)=O [PMA, phorbol 12-myristate-13-acetate, reference compound] |  |  |  | secretion of IL-8 [5]: secreted a significant amount of IL-8
CCCCC(=O)[O-].[Na+] [SV, sodium valerate] | increased LPS-induced secretion of IL-8 |  |  | 
CCCCCC(=O)O [hexanoic acid] | did not inhibit IL-8 secretion | did not show significant inhibitory activity | did not show significant inhibitory activity | 
CCCC(=O)[O-].[Na+] [sodium butyrate] | increased LPS-induced secretion of IL-8 | significant (P<0.05) inhibition of HDAC activity | significant (P<0.05) inhibition of HDAC activity | 
CCCCC(=O)O [valeric acid] |  | inhibited HDAC activity | inhibited HDAC activity | 
